# Results as given in US11266710B2, “Angio-3 for treatment of retinal angiogenic diseases” (SINGAPORE HEALTH SERVICES PTE LTD, priority 2017, dated 2022).
# How the values were obtained:
# [1] = test system: KIMBA mice (KIMBA-hVEGF Transgenic); assay: Retinal angiogenesis (FFA leakage) in KIMBA mice; assay type: in vivo, mouse; conditions: single IVT injection 1 μg in 1 μL
# Description: FIGS. 1A, 1B, 1C and 1D show the efficacy of a single IV dose of angio-3 in attenuating the retinal angiogenesis in KIMBA mice, which have over expression of human VEGF (KIMBA-hVEGF Transgenic). FIG. 1A is a schematic of the experimental design. FIG. 1B are images showing Fundus Fluorescein Angiography (FFA) images of baseline and weekly after post treatment. Digital color fundus photographs were taken using a MICRON IV comprehensive system for rodent retinal imaging (Phoenix Research Labs, Pleasanton, Calif.) after pupil dilatation with topical administration of 1% tropicamide (Alcon Laboratories, Inc., Fort Worth, Tex.) and 2.5% phenylephrine (Bausch and Lomb Pharmaceuticals, Inc., Tampa, Fla.) ophthalmic solutions. […] Readout is the leakage of retinal vascularization post-administration of the drug. n=6 eyes per batch; n=3 batches; Values are expressed as means±s.e.m., **P<0.01, *P<0.05, student's t-test. […] All imaging was performed with a laser-scanning confocal fluorescence microscope.
# FIGS. 2A, 2B, 2C and 2D show the efficacy of a single IVT dose of angio-3 and Eylea (anti-VEGF), positive control in attenuating the retinal angiogenesis in KIMBA mice. […] Readout is the leakage of retinal vascularization post-administration of the drug. n=10 eyes per batch; n=2 batches; Values are expressed as means±s.e.m., **P<0.01, *P<0.05, student's t-test. […]
# [2] = test system: laser-induced CNV in Cynomolgus monkeys; assay: Laser-induced CNV model in Cynomolgus monkeys (wet AMD model); assay type: in vivo, Cynomolgus monkey; conditions: 2 mg Angio-3, 2 mg and 4 mg PeptideQ, 2 mg Eylea, single IVT
# Procedure: FIGS. 25A, 25B, 25C, 25D, 25E, and 25F show the results of testing in a laser-induced chorodial neovascularization (CNV) model in Cynomolgus moneys developed as an experimental model of wet AMD. FIG. 25A is a schematic of the study design. FIG. 25B are representative fundus fluorescein angiography (FFA) images of all groups. FIG. 25C is a graph showing change in mean lesion grade of the eye in monkeys treated with a single dose 2 mg of Angio-3, dose 2 mg of anti-VEGF (Eylea), 2 mg of peptide (Q2) and 4 mg of peptide (Q4) and control. […] FIG. 25E is a graph of laser area quantified from the FFA images by ImageJ software. FIG. 25F are graphs of laser volume quantified from PS-OCT images by ImageJ software.
# A laser-induced choroidal neovascularization (CNV) model was developed and validated in Cynomolgus monkeys as experimental model of wet AMD. […] The development of active CNV was assessed by fluorescein angiography, at Day 14 the baseline degree of neovascularization and leakiness were measured and the final fluorescein angiography assessment was performed on Day 28. Leakage area was quantified by ImageJ software. The laser volume was quantified by Spectralis-Heidelberg software using SD-OCT images.
substance,measurement,setting,value
"Eylea: Eylea (anti-VEGF), positive control; clinical compound [reference compound]",duration of effect in attenuating retinal angiogenesis post treatment,[1],4 weeks
same,comparative efficacy between treatment groups,[2],superior efficacy as compared to test peptides
